We go through 7 molecules from publication PMC12121777 (PLOS One, 2025).

The subject of experiment [1] is Mycobacterium avium 330/88. Put plainly: MIC, micro method in Šula's semisynthetic medium, M. avium. In kind it is cell-based.
Experiment [2] relates to HepG2 cells. Put plainly: Cytotoxicity on HepG2 cell line (CellTiter 96). In kind it is cell-based, human. To be noted: for IC50: read-out: IC50 HepG2.
Experiment [3] has as its system Mtb 331/88 (i.e., H37Rv). Put plainly: MIC, micro method in Šula's semisynthetic medium, drug-susceptible Mtb. In kind it is cell-based, Mycobacterium tuberculosis. The note with it: for MIC: Mycobacterium tuberculosis, H37RV.
Experiment [4] concerns Mycobacterium kansasii 6509/96. Put plainly: MIC, micro method in Šula's semisynthetic medium, M. kansasii clinical isolate. In kind it is cell-based. To be noted: read-out: MIC M. kansasii 6509/96.
Where [5] appears, read: 330/88, 336 h, read-out: MIC M. avium 330/88.
Setting [6] is: 330/88, 504 h, read-out: MIC M. avium 330/88.

≈ marks a conversion by molar mass, not a printed value. Where two headings read alike, the source gives them in different places. A value given as a limit tells only on which side of the number the result lay.

Broadly, the IC50 is the concentration needed to halve the response being measured.

Turning to `CCCCCCCCCCCCNC(=O)NNC(=O)c1cc([N+](=O)[O-])cc([N+](=O)[O-])c1` [Compound 4l, 2-(3,5-Dinitrobenzoyl)-N-dodecylhydrazine-1-carboxamide], the MIC was greater than 250 µM in experiment [1] (setting [5]); greater than 250 µM in experiment [1] (setting [6]); 2 µM (≈ 0.875 µg/mL) in experiment [3] (336 h, 14 days); 2 µM (≈ 0.875 µg/mL) in experiment [3] (504 h, 21 days); 2 µM (≈ 0.875 µg/mL) in experiment [4] (6509/96, 168 h); 2 µM (≈ 0.875 µg/mL) in experiment [4] (6509/96, 336 h). Further, in experiment [4] (6509/96, 504 h), the MIC worked out at 4 µM (≈ 1.75 µg/mL). Further, the IC50 in experiment [2] (Homo sapiens, HepG2, 24 h) amounted to 166 µM.
For `CCCCCCCCCCCCCNC(=O)NNC(=O)c1cc([N+](=O)[O-])cc([N+](=O)[O-])c1` [Compound 4m, 2-(3,5-Dinitrobenzoyl)-N-tridecylhydrazine-1-carboxamide], the MIC was greater than 500 µM in experiment [1] (setting [5]); greater than 500 µM in experiment [1] (setting [6]); 2 µM (≈ 0.903 µg/mL) in experiment [3] (336 h, 14 days); 4 µM (≈ 1.81 µg/mL) in experiment [3] (504 h, 21 days); 2 µM (≈ 0.903 µg/mL) in experiment [4] (6509/96, 168 h); 2 µM (≈ 0.903 µg/mL) in experiment [4] (6509/96, 336 h). Further, the MIC in experiment [4] (6509/96, 504 h) stood at 4 µM (≈ 1.81 µg/mL). For the same molecule, in experiment [2] (Homo sapiens, HepG2, 24 h), the half-inhibitory concentration (IC50) was 163 µM.
`CCCCCCCCCCCCCCNC(=O)NNC(=O)c1cc([N+](=O)[O-])cc([N+](=O)[O-])c1` [Compound 4n, 2-(3,5-Dinitrobenzoyl)-N-tetradecylhydrazine-1-carboxamide]: the MIC in experiment [1] (setting [5]) is greater than 500 µM; in experiment [1] (setting [6]) it was greater than 500 µM; in experiment [3] (336 h, 14 days), 4 µM (≈ 1.86 µg/mL); in experiment [3] (504 h, 21 days) it was 8 µM (≈ 3.72 µg/mL); in experiment [4] (6509/96, 168 h), 4 µM (≈ 1.86 µg/mL); in experiment [4] (6509/96, 336 h) it was 8 µM (≈ 3.72 µg/mL). Also, in experiment [4] (6509/96, 504 h), the MIC was determined as 8 µM (≈ 3.72 µg/mL). Further, the half-inhibitory concentration (IC50) in experiment [2] (Homo sapiens, HepG2, 24 h) stood at 207 µM.
Turning to `CCCCCCCCCCCCCCCNC(=O)NNC(=O)c1cc([N+](=O)[O-])cc([N+](=O)[O-])c1` [Compound 4o, 2-(3,5-Dinitrobenzoyl)-N-pentadecylhydrazine-1-carboxamide], the MIC in experiment [1] (setting [5]) was greater than 500 µM; in experiment [1] (setting [6]), greater than 500 µM; in experiment [3] (336 h, 14 days), 8 µM (≈ 3.84 µg/mL); in experiment [3] (504 h, 21 days), 16 µM (≈ 7.67 µg/mL); in experiment [4] (6509/96, 168 h), 8 µM (≈ 3.84 µg/mL); in experiment [4] (6509/96, 336 h), 8 µM (≈ 3.84 µg/mL). Besides, the MIC in experiment [4] (6509/96, 504 h) came to 16 µM (≈ 7.67 µg/mL). The concentration for half-maximal inhibition (IC50) in experiment [2] (Homo sapiens, HepG2, 24 h) was less than 100 µM; in experiment [2], 82.5 µM.
For the molecule `CCCCNc1nnc(-c2cc([N+](=O)[O-])cc([N+](=O)[O-])c2)o1` [Compound 5d, N-Butyl-5-(3,5-dinitrophenyl)-1,3,4-oxadiazol-2-amine], the MIC was 64 µM (≈ 19.7 µg/mL) in experiment [1] (setting [5]); 125 µM (≈ 38.4 µg/mL) in experiment [1] (setting [6]); 0.5 µM (≈ 0.154 µg/mL) in experiment [3] (336 h, 14 days); 0.5 µM (≈ 0.154 µg/mL) in experiment [3] (504 h, 21 days); 1 µM (≈ 0.307 µg/mL) in experiment [4] (6509/96, 168 h); 2 µM (≈ 0.615 µg/mL) in experiment [4] (6509/96, 336 h). Besides, the MIC in experiment [4] (6509/96, 504 h) amounted to 2 µM (≈ 0.615 µg/mL). For the same molecule, the IC50 in experiment [2] (Homo sapiens, HepG2, 24 h) was greater than 250 µM.
With `CCCCCNc1nnc(-c2cc([N+](=O)[O-])cc([N+](=O)[O-])c2)o1` [Compound 5e, 5-(3,5-Dinitrophenyl)-N-pentyl-1,3,4-oxadiazol-2-amine], the MIC was greater than 500 µM in experiment [1] (setting [5]); greater than 500 µM in experiment [1] (setting [6]); 0.25 µM (≈ 0.0803 µg/mL) in experiment [3] (336 h, 14 days); 0.25 µM (≈ 0.0803 µg/mL) in experiment [3] (504 h, 21 days); 0.25 µM (≈ 0.0803 µg/mL) in experiment [4] (6509/96, 168 h); 0.5 µM (≈ 0.161 µg/mL) in experiment [4] (6509/96, 336 h). Moreover, the MIC in experiment [4] (6509/96, 504 h) was determined as 0.5 µM (≈ 0.161 µg/mL). In addition, the concentration for half-maximal inhibition (IC50) in experiment [2] (Homo sapiens, HepG2, 24 h) was greater than 250 µM.
Take `CCCCCCNc1nnc(-c2cc([N+](=O)[O-])cc([N+](=O)[O-])c2)o1` [Compound 5f, 5-(3,5-Dinitrophenyl)-N-hexyl-1,3,4-oxadiazol-2-amine]: the MIC was no more than 1 µM in experiment [1] (setting [5]); no more than 1 µM in experiment [1] (setting [6]); 1 µM (≈ 0.335 µg/mL) in experiment [1] (330/88, read-out: MIC M. avium); no more than 0.03 µM in experiment [3] (336 h, 14 days); no more than 0.03 µM in experiment [3] (504 h, 21 days); 0.25 µM (≈ 0.0838 µg/mL) in experiment [4] (6509/96, 168 h). Further, the MIC in experiment [4] (6509/96, 336 h) was 0.5 µM (≈ 0.168 µg/mL); in experiment [4] (6509/96, 504 h), 0.5 µM (≈ 0.168 µg/mL). Also, in experiment [2] (Homo sapiens, HepG2, 24 h), the IC50 was greater than 100 µM. In addition, the “selectivity (SI) for M. avium” value in experiment [2] (ratio of IC50 (HepG2) to MIC) was greater than 100. For the same molecule, the “fold more potent than precursor 4 against Mtb” value in experiment [3] (oxadiazole 5 vs hydrazinecarboxamide 4 counterpart) is no less than 33.3 fold.
